Assays:
[1] = tested on: human breast tissue microstructures (EpCAM+ cells); experiment: RNA sequencing of EpCAM+ cells from human breast tissue microstructures stimulated ex vivo; format: cell-based; conditions: 14–18 h exposure, n = 3
Text: Having ascertained with mammary tissue from inbred mice that androgenic and anti‐androgenic progestins have different effects on the expression of important PR target genes, we set out to assess the transcriptional response to PR signaling in the human breast epithelium. In view of our goal to perform in vivo experiments with the natural ligand progesterone, we compared the effects of progesterone to those of its stable analog R5020 which is commonly used for in vitro experiments on breast epithelial cells. For this, we used an ex vivo approach with human breast tissue similar to the mouse organoid technique used above that maintains hormone responsiveness (Tanos et al, 2013; Sflomos et al, 2015). In brief, 3 fresh mammoplasty tissue from women with follicular phase progesterone levels were cut into 1 mm^3 pieces and aliquoted for digestion with collagenase and concomitant exposure to either vehicle, R5020, or progesterone for 14–18 h. Tissue microstructures that contain epithelial cells, immune cells, and fibroblasts in varying proportions were recovered. To reduce interpatient variation as far as it relates to different ratios of various cell types, at the end of the treatment, the tissue microstructures were dissociated to single cells and enriched for epithelial cells by FACS sorting with antibodies against the epithelial cell surface marker EpCAM (Fig 2A). The EpCAM^+ cells were processed for RNA sequencing. […] Progesterone affected expression levels of 65 genes, whereas R5020 affected 112 genes, including RANKL (adj.P < 0.05) (Appendix Fig S2A). More than 90% of the progesterone‐induced gene expression changes were induced by R5020 (Fig 2C). […] R5020 induced higher‐fold changes as indicated by the estimated slope of the curve being > 1 (P < 0.0001). […]
All experiments conformed to the principles set out in the WMA Declaration of Helsinki and the Department of Health and Human Services Belmont Report. […] Human tissue samples were mechanically and enzymatically dissociated, single cells were prepared, counted, and spin infected using Lenti‐ONE CMV‐GFP(2A)Luc2 WPRE VSV, V621004001, or pR980 Luc2GFP (GEGTECH) at a multiplicity of infection of 1 at 2.500 rpm for 3 h at room temperature in 500 μl of serum‐free medium. […]
RNAseq libraries were prepared using Truseq Stranded RNA producing single‐end reads of 100 bp and sequenced on Illumina Hiseq 2500 instrument. […]
Sequencing reads were quality controlled using FastQC (v0.11.8) (Wingett & Andrews, 2018). Mouse raw reads were aligned to the mouse genome (mm9) and human raw reads to the human genome (hg19) using TopHat (v2.0.11) (Kim et al, 2013). […]

HBECs [2] = experiment: MKI67/Ki67 expression in xenografted HBECs; format: in vivo, human; conditions: 21 days pellets; for cell proliferation (KI67 and hECAD double+ cells), overall analysis: HBECs from 11 different patients; for cell proliferation (KI67 and hECAD double+ cells): one mammoplasty (M310)
Text: (§1) Next, we sought for a readout of in vivo cell proliferation different from radiance. […] Given that MKI67 expression could replace the luciferase measurements as a readout, we used a modified experimental setup for a second round of experiments. We derived HBECs from viably frozen mammoplasty samples (Appendix Table S3) and engrafted them to different mammary glands of NSG females without viral infection. Four months later, the 24 recipient females, each engrafted with 5 different mammoplasties received pellets containing either vehicle, progesterone, or 1 of 6 progestins for 21 days. At sacrifice, xenografted glands were histologically sectioned and cell proliferation was quantified using co‐IF with anti‐MKI67 and anti‐hECAD antibodies. For one of the mammoplasties, we were able to obtain measurements for all experimental conditions (Fig 5I). […] For the remaining mammoplasties, between 3 and 8 different experimental conditions were successfully quantified (Appendix Table S4). […] CPA (P < 0.0001) decreased proliferation, whereas CMA and DSP had no effect (Fig 5K). As AR signaling increases AR protein levels, we performed co‐IF for AR and hECAD as another means to assess AR signaling activity.
(§2) Tissues were fixed for 2 h at room temperature in 4% paraformaldehyde and paraffin‐embedded. Dewaxed and rehydrated paraffin sections were pretreated in 10 mM Na citrate (pH 6.0) at 95° for 20 min. Blocking was performed with 1% BSA for 60 min. Primary antibodies used were as follows: Ki67 (rabbit α‐Ki67, clone Sp6, Spring Amsbio, dilution 1:200), ER (rabbit α‐ER, clone Sp1, Zytomed RTU), PR (rabbit α‐PR, clone 1E2, Ventana RTU), AR (rabbit α‐AR, clone SP107, Thermo Fisher, diluted 1:200), CK7 (rabbit α‐CK7, clone Sp52, Abcam, diluted 1:500), CK19 (mouse KS19.2 (Z105.6), American Research Products Inc. (diluted 1:50), and mouse α‐ECAD (clone G‐10, sc‐8426, diluted 1:100). For IHC, chromogenic revelation was performed with ChromoMap DAB kit (Roche Diagnostics, Switzerland) and sections were counterstained with Mayer’s hematoxylin. For fluorescence microscopy, nuclei were counterstained with DAPI (Sigma). IHC for ER, PR, and AR was performed on Discovery Ventana ULTRA (44). IHC images were acquired on Leica DM 2000 with Leica DFC450 C camera. IF images were acquired on Zeiss LSM700 confocal microscope. Slides were scanned with Olympus VS120‐L100 slide scanner with 20×/0.75 objective and Pike F505 C Color camera. Images were loaded into QuPath using the BioFormats extension (Bankhead et al, 2017).

AR [3] = experiment: Percentage of AR+ cells in xenografted HBECs by co-IF for AR and hECAD; format: in vivo, human; conditions: 21 days pellets, HBECs from 11 different patients
Text: as §1, §2

[4] = NSG, mouse, in vivo
Method: At sacrifice, blood was collected and plasma levels of the administered compounds as well as endogenous steroid hormones were determined by liquid chromatography‐mass spectrometry (LC‐MS) (Laszlo et al, 2019).
Plasma steroid concentrations were measured by LC–MS High Resolution (Q‐Executive, Thermo Fisher Scientific) for testosterone, progesterone, and 17β‐estradiol as described in (Cagnet et al, 2018) and for progestins as described in (Laszlo et al, 2019).

women = conditions: cited from earlier work
HBECs [5] = experiment: In vivo growth of intraductal HBEC xenografts measured by radiance
Text: To compare the effects of progesterone and different progestins on HBECs in vivo, we infected single cell suspensions obtained from fresh reduction mammoplasty specimens with GFP‐luciferase2‐expressing lentiviruses. The infected cell mixture was grafted intraductally to up to 5 glands of as many recipients as possible. The engraftment and growth of the xenografted cells were monitored weekly by in vivo imaging. When radiance reached > 10E07 on average per mammary gland, 60‐day‐release pellets were implanted subcutaneously, usually within 3–10 weeks after cell injection. At sacrifice, blood was collected and plasma levels of the administered compounds as well as endogenous steroid hormones were determined by liquid chromatography‐mass spectrometry (LC‐MS) (Laszlo et al, 2019).
Next, the in vivo growth of HBEC xenografts stimulated with progesterone or different progestins was analyzed. […] In addition, the fold change radiance of treated versus untreated samples at endpoint was calculated (Fig 5A–C).
(§3) Mice were anesthetized by intraperitoneal injection with 10 mg/kg xylazine and 90 mg/kg ketamine (Graeub) and injected intraductally with 10 μl cell suspension per gland. Bioluminescence imaging was performed as described (Sflomos et al, 2016). After 3–10 weeks, when bioluminescence from individual glands reached 10^7 total flux (p/s/cm2/sr), animals were assigned to different treatment groups and hormone pellets implanted subcutaneously. Enzalutamide (Selleckchem, Catalog No. S1250) dissolved in 15% DMSO in PEG300 was injected intraperitoneally 3 times/week at 30 mg/kg.
Pellets were prepared by mixing the required amount of part A, MP3745/E81949 and part B, MP3744/E81950 of low consistency silicon elastomer (MED‐4011) and hormone powder to homogeneity. Mix was transferred to a syringe and incubated at 37°C overnight. The silicon‐hormone mass was removed from the syringe and cut to pieces, as described (Duss et al, 2007). The original protocol was adapted for different doses as described below.

Rankl = Rankl transcript levels by RT-PCR in mouse mammary organoids stimulated ex vivo; format: cell-based
Wnt4 = Wnt4 transcript levels by RT-PCR in mouse mammary organoids stimulated ex vivo; format: cell-based
[6] = tested on: endogenous hormone levels in mice; experiment: Endogenous steroid hormone plasma levels in treated host mice by LC-MS; format: in vivo, mouse; conditions: xenografted NSG females with pellets
Text: Next, we assessed whether progesterone and progestins differentially affected endogenous hormone levels in mice. Plasma 17‐β‐estradiol levels were not affected by any of the treatments (Fig 4H). […] Plasma testosterone levels were not altered by any treatment with the exception of DSP, which decreased them (Fig 4H). Thus, prolonged exposures to progestins differentially affect endogenous progesterone plasma levels and DSP decreases testosterone plasma levels in host mice.

KLK3 = KLK3 mRNA in xenografted HBECs by RT-PCR with human-specific primers; format: in vivo; conditions: 3 weeks of treatment (Fig 5H)
Text: Consistent with AR and PR sharing a common hormone response element (Claessens et al, 1996), KLK3 was induced upon progestin stimulation. […] This is in agreement with previous findings that KLK3 expression is under the control of both androgens and progestins in T47D cells (Zarghami et al, 1997).
as §1
Human breast microstructures and mouse organoids were homogenized in Trizol (Invitrogen). Aqueous phase containing RNA was chloroform extracted and processed with miRNeasy extraction kit (Qiagen). cDNA was synthesized using random p(dN)6 primers (Roche) and MMLV reverse transcriptase (Invitrogen). SYBR Green PCR Core Reagent System (Qiagen) was used for semi‐quantitative real time (RT‐PCR) using the following primers.

HBECs [7] = experiment: In vivo growth of HBEC xenografts treated with LNG with or without enzalutamide; set-up: species or system human; conditions: 3 PDXs, radiance
Method: Mice were anesthetized by intraperitoneal injection with 10 mg/kg xylazine and 90 mg/kg ketamine (Graeub) and injected intraductally with 10 μl cell suspension per gland. […] After 3–10 weeks, when bioluminescence from individual glands reached 10^7 total flux (p/s/cm2/sr), animals were assigned to different treatment groups and hormone pellets implanted subcutaneously. Enzalutamide (Selleckchem, Catalog No. S1250) dissolved in 15% DMSO in PEG300 was injected intraperitoneally 3 times/week at 30 mg/kg.

AR [8] = experiment: In vivo growth of LNG-treated HBEC xenografts transduced with shAR or sh scramble; set-up: species or system human; conditions: within 60 days
Text: To further test the requirement for AR in the context of progestin‐driven proliferation, we took a genetic approach and down modulated AR expression in freshly isolated HBECs using a GFP‐luciferase2‐shAR or GFP‐luciferase2‐sh scramble expressing lentivirus. […] Double IF with anti‐GFP and anti‐AR antibodies and analysis by image quantification confirmed the down regulation of AR protein levels in the shAR infected cells identified based on GFP co‐expression (Fig 7E and F).

human breast epithelium = conditions: female, mouse, in vivo, 8 months
Method: All the engrafted glands were processed for histological analysis and H&E stained.
as §3

HBECs [9] = experiment: MKI67/Ki67 expression in xenografted HBECs; format: in vivo, human; conditions: 3 weeks of treatment, at endpoint
AR [10] = tested on: AR; set-up: method as in earlier work; conditions: various assays, ref Fuhrmann et al, 1995, Muhn et al, Bouchard, 2005, Mishell, 2008, Schneider et al, 2009, Africander et al, 2011, Louw‐du Toit et al, 2017; cited from earlier work
[11] = 60 days of treatment, subcutaneous pellets
[12] = BalbC females, 6 h of stimulation
[13] = BalbC-derived organoids, 24 h of stimulation

**Q.** Which results are given for `CC(=O)[C@H]1CC[C@H]2[C@@H]3CCC4=CC(=O)CC[C@]4(C)[C@H]3CC[C@]12C` [progesterone]?
**A.** RANKL expression (variant stabilized gene expression values) [1]: increased expression; WNT4 expression (variant stabilized gene expression values) [1]: increased expression; cell proliferation (KI67 and hECAD double+ cells), overall analysis (HBECs [2]): increased; cell proliferation (KI67 and hECAD double+ cells) (HBECs [2]): significantly increased; percentage of AR+ cells (AR index) (AR [3]): decreased; plasma progesterone relative to average levels in control mice [4]: 4.9 times; association with breast cancer risk (women): not associated with breast cancer risk; growth (course of radiance) of engrafted HBECs versus control (HBECs [5]; [11]): increased; relative radiance at endpoint over control (FC) (HBECs [5]; [11]): 1.3 fold

**Q.** What does the source list for `C#C[C@]1(O)CC[C@H]2[C@@H]3CCC4=CC(=O)CC[C@@H]4[C@H]3CC[C@@]21CC` [LNG, levonorgestrel]?
**A.** Rankl transcript levels over vehicle-treated control (Rankl; [12]): 27.7 fold; Rankl transcript induction (Rankl; [13]): 253.9 fold; Rankl transcript induction (Rankl; C57Bl/6 mice, 6 h, 20 nM): 21.6 fold; Wnt4 transcript levels over vehicle-treated control (Wnt4; [12]): 4.8 fold; Wnt4 transcript induction (Wnt4; [13]): 36.3 fold; Wnt4 transcript induction (Wnt4; C57Bl/6 mice, 6 h, 20 nM): 4.3 fold; endogenous progesterone plasma levels (estrous cycle-related variation) [6]: did not affect; KLK3 transcript expression (KLK3): increased; cell proliferation (KI67 and hECAD double+ cells), overall analysis (HBECs [2]): increased; cell proliferation (KI67 and hECAD double+ cells) (HBECs [2]): significantly increased; proliferation rates of PDXs upon LNG exposure (HBECs [7]): increased the proliferation rates in 2 of 3 PDXs; reduction of LNG-induced radiance by down regulation of AR expression (shAR) (AR [8]): 22%; morphologic changes in xenografts (H&E) (human breast epithelium): 3 or 4 grafts showed diffuse and in some cases marked acinar proliferation; MKI67 expression at mRNA level (HBECs [9]): increased; MKI67 expression at protein level (HBECs [9]): increased; androgenic / anti-androgenic activity (AR [10]): androgenic activity; breast cancer risk (women; women taking androgenic progestins, ref Rossouw et al, 2002): elevated breast cancer risk; RR of breast cancer (women; women, ref Hunter et al, 2010): 3.05; lobular breast cancer risk compared to the general population (women; women, ref Hunter et al, 2010): 1.45; RR for ductal breast cancer (women; women, ref Soini et al, 2016): 1.20; cell proliferation by radiance measurements (HBECs [5]; 3 weeks of treatment, mammoplasty M354): stimulated cell proliferation; growth (course of radiance) of engrafted HBECs versus control (HBECs [5]; [11]): increased growth

Reference: article PMC8261488, “Contraceptive progestins with androgenic properties stimulate breast epithelial cell proliferation” (EMBO Molecular Medicine, 2021)
